Common to all, as to format: cell-based
One test has as its system Staph. aureus C-57. The test can be described thus: MIC by agar dilution, Staph. aureus C-57. The conditions noted are these: Staphylococcus aureus, C57, 17 h, Mueller-Hinton agar, read-out: Minimal Inhibitory Concentration (MIC). The method in brief:
(§1)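 MIC is the endpoint, obtained by agar dilution after 17±1 hours at 35°-37° C. on Mueller-Hinton agar containing doubling compound concentrations; strains inoculated at 10^6 CFU per ml.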

In a further test the test system is K. pneumoniae NCTC 9632. The test can be described thus: MIC by agar dilution, K. pneumoniae NCTC 9632. Particulars: Klebsiella pneumoniae, NCTC9632, 17 h; K. pneumoniae NCTC 9632; agar dilution, Mueller-Hinton agar; read-out: Minimal Inhibitory Concentration (MIC). The method in brief:
as §1

Another test has as its system Staph. aureus C-5113. The experiment in a line: MIC by agar dilution, Staph. aureus C-5113. Particulars: Staphylococcus aureus, C5113, 17 h, Mueller-Hinton agar, read-out: Minimal Inhibitory Concentration (MIC). In a few lines: as §1
Another test has as its system E. coli DY-1. The test can be described thus: MIC by agar dilution, E. coli DY-1. The conditions noted are these: Escherichia coli, DY1, 17 h; E. coli DY-1; agar dilution, Mueller-Hinton agar; read-out: Minimal Inhibitory Concentration (MIC). The method in brief:
as §1

For test [1], the system named is S. epidermidis ATCC 12228. The test can be described thus: MIC by agar dilution, S. epidermidis ATCC 12228. Particulars: Staphylococcus epidermidis, ATCC12228, 17 h; S. epidermidis ATCC 12228; agar dilution, Mueller-Hinton agar; read-out: Minimal Inhibitory Concentration (MIC). The method in brief:
as §1

A further test deals with Staph. aureus ATCC 6538P. The experiment in a line: MIC by agar dilution, Staph. aureus ATCC 6538P. The conditions noted are these: Staphylococcus aureus, ATCC6538P, 17 h; Staph. aureus ATCC 6538P; agar dilution, Mueller-Hinton agar; read-out: Minimal Inhibitory Concentration (MIC). The method in brief:
as §1

Test [2] relates to Ser. marcescens IFO 12648. The test can be described thus: MIC by agar dilution, Ser. marcescens IFO 12648. The conditions noted are these: Serratia marcescens, IFO12648, 17 h; Ser. marcescens IFO 12648; agar dilution, Mueller-Hinton agar; read-out: Minimal Inhibitory Concentration (MIC). The method in brief:
as §1

The next test relates to Ent. aerogenes IFO 12979. The experiment in a line: MIC by agar dilution, Ent. aerogenes IFO 12979. Particulars: Klebsiella aerogenes, IFO12979, 17 h, Mueller-Hinton agar, read-out: Minimal Inhibitory Concentration (MIC). The method in brief:
as §1

The test system of another test is B. subtilis ATCC 6633. The test can be described thus: MIC by agar dilution, B. subtilis ATCC 6633. Particulars: Bacillus subtilis, ATCC6633, 17 h; B. subtilis ATCC 6633; agar dilution, Mueller-Hinton agar; read-out: Minimal Inhibitory Concentration (MIC). The method in brief:
as §1

A further test concerns Staph. aureus Smith. The experiment in a line: MIC by agar dilution, Staph. aureus Smith. Particulars: Staphylococcus aureus, 17 h, Mueller-Hinton agar, read-out: Minimal Inhibitory Concentration (MIC). The method in brief: as §1
A further test relates to Prov. stuartii IFO 12930. The test can be described thus: MIC by agar dilution, Prov. stuartii IFO 12930. The conditions noted are these: Providencia stuartii, IFO12930, 17 h, Mueller-Hinton agar, read-out: Minimal Inhibitory Concentration (MIC). The method in brief: as §1
The next test concerns Staph. aureus C-5216. The test can be described thus: MIC by agar dilution, Staph. aureus C-5216. The conditions noted are these: Staphylococcus aureus, C5216, 17 h, Mueller-Hinton agar, read-out: Minimal Inhibitory Concentration (MIC). In a few lines: as §1
The test system of a further test is Ps. aeruginosa DY-2. The experiment in a line: MIC by agar dilution, Ps. aeruginosa DY-2. Particulars: Pseudomonas aeruginosa, DY2, 17 h; Ps. aeruginosa DY-2; agar dilution, Mueller-Hinton agar; read-out: Minimal Inhibitory Concentration (MIC). The method in brief:
as §1

The subject of test [3] is Ps. aeruginosa ATCC 10145. The test can be described thus: MIC by agar dilution, Ps. aeruginosa ATCC 10145. Particulars: Pseudomonas aeruginosa, ATCC10145, 17 h, Mueller-Hinton agar, read-out: Minimal Inhibitory Concentration (MIC). In a few lines:
as §1

Another test has as its system M. morganii DY-1. The test can be described thus: MIC by agar dilution, M. morganii DY-1. The conditions noted are these: Morganella morganii, DY1, 17 h; M. morganii DY-1; agar dilution, Mueller-Hinton agar; read-out: Minimal Inhibitory Concentration (MIC). The method in brief: as §1
The subject of the next test is E. coli NIHJ JC-2. The test can be described thus: MIC by agar dilution, E. coli NIHJ JC-2. Particulars: Escherichia coli, NIHJJC2, 17 h; E. coli NIHJ JC-2; agar dilution, Mueller-Hinton agar; read-out: Minimal Inhibitory Concentration (MIC). In a few lines:
as §1

The next test deals with Ent. cloacae IFO 13535. The test can be described thus: MIC by agar dilution, Ent. cloacae IFO 13535. The conditions noted are these: Enterobacter cloacae, IFO13535, 17 h; Ent. cloacae IFO 13535; agar dilution, Mueller-Hinton agar; read-out: Minimal Inhibitory Concentration (MIC). In a few lines:
as §1

The next test deals with E. coli No. 29. The test can be described thus: MIC by agar dilution, E. coli No. 29. Particulars: Escherichia coli, 17 h; E. coli No. 29; agar dilution, Mueller-Hinton agar; read-out: Minimal Inhibitory Concentration (MIC). The method in brief: as §1
A further test concerns P. vulgaris NCTC 8313. The test can be described thus: MIC by agar dilution, P. vulgaris NCTC 8313. The conditions noted are these: Proteus vulgaris, NCTC8313, 17 h; P. vulgaris NCTC 8313; agar dilution, Mueller-Hinton agar; read-out: Minimal Inhibitory Concentration (MIC). The method in brief: as §1
Test [4] deals with Ps. aeruginosa NCTC 10490. The experiment in a line: MIC by agar dilution, Ps. aeruginosa NCTC 10490. The conditions noted are these: Pseudomonas aeruginosa, NCTC10490, 17 h, Mueller-Hinton agar, read-out: Minimal Inhibitory Concentration (MIC). In a few lines:
as §1

Values after ≈ are worked out from the molar mass of the structure shown. Bounds are passed on as bounds.

On to `Nc1nc(/C(=N\O)C(=O)N[C@@H]2C(=O)N3C(C(=O)[O-])=C(C[n+]4ccn5cccc5c4)CS[C@H]23)cs1` [Ex. 7, 7-β-[(Z)-2-(2-aminothiazol-4-yl)-2-hydroxyiminoacetamido]-3-(pyrrolo[1,2-a]pyrazinium-2-yl)methyl-3-cephem-4-carboxylate], for which the MIC with Staph. aureus C-57 is 25 µg/mL (≈ 50 µM); in the test with K. pneumoniae NCTC 9632, 0.1 µg/mL (≈ 0.2 µM); in the test on Staph. aureus C-5113, 0.39 µg/mL (≈ 0.781 µM); with E. coli DY-1, 0.05 µg/mL (≈ 0.1 µM); in test [1], 0.025 µg/mL (≈ 0.05 µM); in the test on Staph. aureus ATCC 6538P it was 0.1 µg/mL (≈ 0.2 µM). Besides, the MIC was 0.1 µg/mL (≈ 0.2 µM) in [2]; 0.1 µg/mL (≈ 0.2 µM) in the test with Ent. aerogenes IFO 12979; 0.2 µg/mL (≈ 0.4 µM) in the test with B. subtilis ATCC 6633; 0.39 µg/mL (≈ 0.781 µM) in the test on Staph. aureus Smith; 12 ng/mL (≈ 0.024 µM) in the test on Prov. stuartii IFO 12930; 0.39 µg/mL (≈ 0.781 µM) in the test on Staph. aureus C-5216. Further, the MIC with Ps. aeruginosa DY-2 was 25 µg/mL (≈ 50 µM); in [3] it was 1.56 µg/mL (≈ 3.12 µM); with M. morganii DY-1, 0.1 µg/mL (≈ 0.2 µM); in the test on E. coli NIHJ JC-2 it was 0.05 µg/mL (≈ 0.1 µM); in the test with Ent. cloacae IFO 13535 it was 0.39 µg/mL (≈ 0.781 µM); in the test on E. coli No. 29, 0.05 µg/mL (≈ 0.1 µM). Further, the MIC in the test with P. vulgaris NCTC 8313 came to 0.2 µg/mL (≈ 0.4 µM); in test [4], 0.39 µg/mL (≈ 0.781 µM).

With `CO/N=C(\C(=O)N[C@@H]1C(=O)N2C(C(=O)[O-])=C(C[n+]3cc(C(=O)O)n4cccc4c3)CS[C@H]12)c1csc(N)n1` [Ex. 39, 7-β-[(Z)-2-(2-aminothiazol-4-yl)-2-methoxyiminoacetamido]-3-(4-carboxypyrrolo[1,2-a]pyrazinium-2-yl)methyl-3-cephem-4-carboxylate], the MIC was 50 µg/mL (≈ 89.7 µM) in the test with Staph. aureus C-57; at most 0.006 µg/mL in the test on K. pneumoniae NCTC 9632; 1.56 µg/mL (≈ 2.8 µM) with Staph. aureus C-5113; at most 0.006 µg/mL with E. coli DY-1; 0.05 µg/mL (≈ 0.0897 µM) in [1]; 0.39 µg/mL (≈ 0.699 µM) in the test with Staph. aureus ATCC 6538P. For the same compound, the MIC in test [2] is at most 0.006 µg/mL; in the test on Ent. aerogenes IFO 12979 it was at most 0.006 µg/mL; with B. subtilis ATCC 6633 it was 0.2 µg/mL (≈ 0.359 µM); in the test with Staph. aureus Smith it was 1.56 µg/mL (≈ 2.8 µM); in the test on Prov. stuartii IFO 12930, at most 6 ng/mL; in the test on Staph. aureus C-5216, 1.56 µg/mL (≈ 2.8 µM). Moreover, the MIC in the test with Ps. aeruginosa DY-2 was 6.25 µg/mL (≈ 11.2 µM); in [3], 0.78 µg/mL (≈ 1.4 µM); in the test with M. morganii DY-1, at most 0.006 µg/mL; in the test with E. coli NIHJ JC-2, at most 0.006 µg/mL; in the test on Ent. cloacae IFO 13535, 0.012 µg/mL (≈ 0.0215 µM); with E. coli No. 29, at most 0.006 µg/mL. In addition, the MIC in the test with P. vulgaris NCTC 8313 was at most 0.006 µg/mL; in test [4], 0.2 µg/mL (≈ 0.359 µM).

In the case of `CON=C(C(=O)NC1C(=O)N2C(C(=O)[O-])=C(C[n+]3ccn4cccc4c3)CSC12)c1csc(N)n1` (stereo not drawn) [Ex. 1-1, 7-β-[(Z)-2-(2-aminothiazol-4-yl)2-methoxyiminoacetamido]-3-(pyrrolo[1,2a]pyrazinium-2-yl)methyl-3-cephem-4-carboxylate], the MIC in the test on Staph. aureus C-57 was 25 µg/mL (≈ 48.7 µM); in the test with K. pneumoniae NCTC 9632, at most 0.006 µg/mL; in the test on Staph. aureus C-5113, 0.78 µg/mL (≈ 1.52 µM); with E. coli DY-1, at most 0.006 µg/mL; in [1] it was 0.025 µg/mL (≈ 0.0487 µM); in the test with Staph. aureus ATCC 6538P it was 0.1 µg/mL (≈ 0.195 µM). Moreover, the MIC is at most 0.006 µg/mL in [2]; at most 0.006 µg/mL in the test on Ent. aerogenes IFO 12979; 0.1 µg/mL (≈ 0.195 µM) in the test on B. subtilis ATCC 6633; 0.39 µg/mL (≈ 0.759 µM) in the test on Staph. aureus Smith; at most 6 ng/mL in the test on Prov. stuartii IFO 12930; 0.78 µg/mL (≈ 1.52 µM) in the test on Staph. aureus C-5216. In addition, the MIC in the test with Ps. aeruginosa DY-2 was 1.56 µg/mL (≈ 3.04 µM); in test [3], 0.39 µg/mL (≈ 0.759 µM); in the test on M. morganii DY-1, at most 0.006 µg/mL; in the test with E. coli NIHJ JC-2, at most 0.006 µg/mL; with Ent. cloacae IFO 13535, 0.05 µg/mL (≈ 0.0974 µM); with E. coli No. 29, at most 0.006 µg/mL. Also, the figures for the MIC (in the test on P. vulgaris NCTC 8313; in test [4]) were at most 0.006 µg/mL and 0.1 µg/mL (≈ 0.195 µM), respectively.

Source of the values: patent publication US5593984A, “Cephalosporin derivatives” (Yuhan Corporation, priority 1992, dated 1997).
